This note sets out measurements from ChEMBL document CHEMBL1201862, “PubChem BioAssay data set” (2004).

Molecules are shown by their SMILES.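 Values below derive from 48-hour exposures of cells grown in 96-well plates, with endpoints linearly interpolated between the two concentrations bracketing the appropriate inhibition level. GI50: concentration for 50% inhibition of growth.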 Active and inactive are the calls of the source. Cut-off read from the data, not from the text of the source: active = GI50 up to about 1.1 µM and inactive = higher.

Holding throughout (assay): NCI tumour cell line growth inhibition, 48 h
The test system of experiment [1] is SF-539.
Experiment [2] relates to HT-29.
Experiment [3] relates to Hs-578T.
The subject of experiment [4] is SK-MEL-2.
Experiment [5] concerns SN12C.
Experiment [6] relates to MDA-N.
For experiment [7], the system named is UACC-62.
Experiment [8] concerns A549.
The subject of experiment [9] is SF-268.
Experiment [10] concerns SNB-75.
For experiment [11], the system named is U-251.
For experiment [12], the system named is T47D.
Experiment [13] concerns ACHN.
Experiment [14] concerns HOP-92.
Experiment [15] deals with OVCAR-5.
The subject of experiment [16] is OVCAR-8.
The test system of experiment [17] is IGROV-1.
Experiment [18] relates to HCT-15.
Experiment [19] has as its system RPMI-8226.

Turning to `Cc1[nH]c(=O)[nH]c(=S)c1C(=O)NC(C)(CO)CO`, the GI50 in [1], in experiment [2], in [3], in experiment [4], in experiment [5] and in experiment [6] was > 100 µM (inactive) each time. Besides, the GI50 in experiment [7], in experiment [8], in experiment [9], in experiment [10], in [11] and in experiment [12] was > 100 µM (inactive) in each case. Further, the GI50 is > 100 µM (inactive) in [13]; > 100 µM (inactive) in [14]; > 100 µM (inactive) in experiment [15]; > 100 µM (inactive) in experiment [16]; > 100 µM (inactive) in experiment [17]; over 100 µM in experiment [18].

Turning to `CN1C/C(=C\c2cccs2)C(=O)/C(=C/c2cccs2)C1`, the GI50 in experiment [2] is 18.7 µM (inactive); in experiment [3], > 100 µM (inactive); in experiment [4], 20.8 µM (inactive); in experiment [19] it was 5.53 µM (inactive); in experiment [5], 21.8 µM (inactive); in [6], 15.6 µM (inactive). In addition, the GI50 was 57.3 µM (inactive) in experiment [7]; 21.9 µM (inactive) in experiment [8]; 46.7 µM (inactive) in [9]; 15.6 µM (inactive) in [11]; 20.6 µM (inactive) in experiment [12]; 25.9 µM (inactive) in experiment [13]. The GI50 is 2.51 µM (inactive) in experiment [14]; 20.6 µM (inactive) in experiment [15]; 20 µM (inactive) in experiment [16]; 18.9 µM (inactive) in [17]; 27.2 µM in experiment [18].

As to `O=C(c1ccco1)N(C(=O)N1CCN(c2ccccc2)CC1)S(=O)(=O)c1ccccc1`, the GI50 in experiment [1] was 19.1 µM (inactive); in experiment [2], 35.8 µM (inactive); in [3] it was 32 µM (inactive); in [4] it was 18.5 µM (inactive); in [5], 23.9 µM (inactive); in experiment [6], 22.5 µM (inactive). In addition, the GI50 was 27.4 µM (inactive) in experiment [7]; 34.4 µM (inactive) in experiment [8]; 37.7 µM (inactive) in [9]; 24.5 µM (inactive) in [10]; 27.4 µM (inactive) in experiment [11]; 24.2 µM (inactive) in experiment [12]. Moreover, the GI50 was 24.7 µM (inactive) in experiment [13]; 27.3 µM (inactive) in experiment [14]; 41.6 µM (inactive) in experiment [15]; 32.6 µM (inactive) in [16]; 33.4 µM in experiment [18].

Regarding `O=C(O)c1ccc(CNCc2ccccc2)cc1`, the GI50 in [1], in experiment [2], in experiment [3], in [4], in experiment [19] and in experiment [5] was > 100 µM (inactive) throughout. The GI50 in [6], in [7], in experiment [8], in experiment [9], in [11] and in experiment [12] was > 100 µM (inactive) each time. The GI50 in experiment [13] was > 100 µM (inactive); in experiment [14], > 100 µM (inactive); in experiment [15], > 100 µM (inactive); in [16], > 100 µM (inactive); in experiment [17], > 100 µM (inactive); in [18] it was over 100 µM.

As to `C#C[C@]1(O)CC[C@H]2[C@@H]3CCC4=C/C(=N/CCOC(=O)c5cccc6c(=O)c7ccccc7[nH]c56)CC[C@@H]4[C@H]3CC[C@@]21C`, the GI50 in [2] was 64.3 µM (inactive); in experiment [3] it was 35.2 µM (inactive); in experiment [4], 30.1 µM (inactive); in [5] it was 74.5 µM (inactive); in [6], 50.7 µM (inactive); in experiment [7], 36.8 µM (inactive). Besides, the GI50 in experiment [8] is 41.7 µM (inactive); in [9] it was 53.6 µM (inactive); in [11], 16.4 µM (inactive); in [12] it was 20.5 µM (inactive); in [13], 40.4 µM (inactive); in [14] it was 23.1 µM (inactive). The GI50 was > 100 µM (inactive) in experiment [15], 21 µM (inactive) in experiment [16], 29.5 µM (inactive) in experiment [17] and 45 µM in [18].

For `COc1cc(C(=O)O)c(-c2cc3c(cc2C=O)OCO3)c(OC)c1OC`, the GI50 in [1], in experiment [2], in experiment [3], in experiment [19], in experiment [5] and in [6] was > 10 µM (inactive) in each case. Moreover, the GI50 in experiment [7], in experiment [8], in experiment [9], in experiment [10], in experiment [11] and in [12] was > 10 µM (inactive) each time. Besides, the GI50 is > 10 µM (inactive) in experiment [13]; > 10 µM (inactive) in experiment [14]; > 10 µM (inactive) in experiment [16]; > 10 µM (inactive) in experiment [17]; over 10 µM in experiment [18].

Regarding `COc1ccc2cc1Oc1ccc(cc1)C(Sc1ccccc1)CCOC(=O)CC2` (centres undefined), the GI50 in [1] was > 100 µM (inactive); in [2], > 100 µM (inactive); in [3] it was > 100 µM (inactive); in [4] it was > 100 µM (inactive); in experiment [19], 13.4 µM (inactive); in [5], > 100 µM (inactive). Also, the GI50 in [6], in experiment [7], in [8], in experiment [9], in experiment [10] and in experiment [11] was > 100 µM (inactive) each time. The GI50 is 11.5 µM (inactive) in experiment [12]; > 100 µM (inactive) in [13]; > 100 µM (inactive) in experiment [15]; > 100 µM (inactive) in [16]; > 100 µM (inactive) in experiment [17]; 18.1 µM in experiment [18].

As for `CN(C)CCCNc1ccc2nnn3c4ccc(OC(=O)c5ccc([N+](=O)[O-])cc5)cc4c(=O)c1c23`, the GI50 in [1] is 2.9 µM (inactive); in [2], 2.55 µM (inactive); in experiment [3], 9.77 µM (inactive); in experiment [4], 18.8 µM (inactive); in experiment [19] it was 2.44 µM (inactive); in experiment [5], 3.05 µM (inactive). Moreover, the GI50 in [6] is 11 µM (inactive); in experiment [7], 15.9 µM (inactive); in experiment [8], 1.28 µM (inactive); in experiment [9] it was 4.09 µM (inactive); in experiment [11], 4.58 µM (inactive); in [12], 24.2 µM (inactive). The GI50 in [13] was 1.5 µM (inactive); in experiment [14] it was 10.6 µM (inactive); in [15] it was 11.5 µM (inactive); in experiment [16], 2.26 µM (inactive); in [17], 1.07 µM (active); in experiment [18] it was 2.72 µM.
